{
  "source": "the supplement of paper PMC10307832",
  "assay_in_all_cases": "relative viability (nuclei count vs DMSO), 5 days (fraction); higher = more cells survive",
  "key": {"Metformin + Decitabine": {"compound": "CN(C)C(=N)NC(=N)N [Metformin] + Nc1ncn([C@H]2C[C@H](O)[C@@H](CO)O2)c(=O)n1 [Decitabine] (partner 2 µM)", "summary_of_the_method": "(§1)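 Each reported value is a median over duplicate plates. It expresses relative viability: treated-well nuclei count divided by vehicle-well nuclei count. Lung cancer cell lines in 1536-well plates were dosed by pin tool a day after seeding, alone with one drug or with a fixed anchor-drug dose plus five library-drug doses (not always all listed) in √10 steps, and nuclei were counted after 5 days.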"}, "Apatinib + Decitabine": {"compound": "N#CC1(c2ccc(NC(=O)c3cccnc3NCc3ccncc3)cc2)CCCC1 [Apatinib] + Nc1ncn([C@H]2C[C@H](O)[C@@H](CO)O2)c(=O)n1 [Decitabine] (partner 2 µM)", "summary_of_the_method": "as §1"}, "Apatinib + Vorinostat": {"compound": "N#CC1(c2ccc(NC(=O)c3cccnc3NCc3ccncc3)cc2)CCCC1 [Apatinib] + O=C(CCCCCCC(=O)Nc1ccccc1)NO [Vorinostat] (partner 1 µM)", "summary_of_the_method": "as §1"}, "Apatinib + OSI-027": {"compound": "N#CC1(c2ccc(NC(=O)c3cccnc3NCc3ccncc3)cc2)CCCC1 [Apatinib] + COc1cccc2cc(-c3nc([C@H]4CC[C@H](C(=O)O)CC4)n4ncnc(N)c34)[nH]c12 [OSI-027] (partner 0.5 µM)", "summary_of_the_method": "as §1"}},
  "data": [
    {"cell line": "NCI-H460", "values": [
      {"measurement": "relative viability", "setting": "Metformin + Decitabine; first compound 31.62 µM", "value": 0.444},
      {"measurement": "relative viability", "setting": "Metformin + Decitabine; first compound 100 µM", "value": 0.493},
      {"measurement": "relative viability", "setting": "Metformin + Decitabine; first compound 316.23 µM", "value": 0.412},
      {"measurement": "relative viability", "setting": "Metformin + Decitabine; first compound 1000 µM", "value": 0.469},
      {"measurement": "relative viability", "setting": "Apatinib + Decitabine; first compound 0.08 µM", "value": 0.497},
      {"measurement": "relative viability", "setting": "Apatinib + Decitabine; first compound 0.253 µM", "value": 0.457},
      {"measurement": "relative viability", "setting": "Apatinib + Decitabine; first compound 0.8 µM", "value": 0.43},
      {"measurement": "relative viability", "setting": "Apatinib + Decitabine; first compound 2.53 µM", "value": 0.447},
      {"measurement": "relative viability", "setting": "Apatinib + Decitabine; first compound 8 µM", "value": 0.477},
      {"measurement": "relative viability", "setting": "Apatinib + Vorinostat; first compound 0.08 µM", "value": 0.741},
      {"measurement": "relative viability", "setting": "Apatinib + Vorinostat; first compound 0.253 µM", "value": 0.73},
      {"measurement": "relative viability", "setting": "Apatinib + Vorinostat; first compound 0.8 µM", "value": 0.623},
      {"measurement": "relative viability", "setting": "Apatinib + Vorinostat; first compound 2.53 µM", "value": 0.577},
      {"measurement": "relative viability", "setting": "Apatinib + Vorinostat; first compound 8 µM", "value": 0.417},
      {"measurement": "relative viability", "setting": "Apatinib + OSI-027; first compound 0.08 µM", "value": 0.799},
      {"measurement": "relative viability", "setting": "Apatinib + OSI-027; first compound 0.253 µM", "value": 0.746},
      {"measurement": "relative viability", "setting": "Apatinib + OSI-027; first compound 0.8 µM", "value": 0.491},
      {"measurement": "relative viability", "setting": "Apatinib + OSI-027; first compound 2.53 µM", "value": 0.541},
      {"measurement": "relative viability", "setting": "Apatinib + OSI-027; first compound 8 µM", "value": 0.333}
    ]}
  ]
}
